According to PubChem BioAssay AID1845199 (Molecular Pharmacology Branch, DTP, NCI, 2023):
pIC50: −log10 of the molar value.

System: 556581-035-R-J1 tumor spheroid viability, % test/control
Assay: Anticancer human tumor 556581-035-R-J1 patient-derived ovarian carcinoma cell line growth inhibition
Conditions: spheroids with HUVEC and MSC; for pIC50: curve of first compound; for viability, T/C: stronger effect = lower value
Procedure, shortened: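 Complex tumor spheroids combined malignant cells with endothelial cells and mesenchymal stem cells. DNA-damaging drugs and DNA repair inhibitors were tested alone and in combination, at half-log dilutions down from clinical Cmax (top 10 microM if Cmax unknown), 0.25% DMSO final.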
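Note: spheroids exposed to compounds for 7 days before viability read.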

COc1ccc([C@@H](O)c2cc(-c3ncnc4cc(N5CCOCC5)ccc34)c(F)cc2Cl)nn1 + COc1cc2c(cc1O)CCNC21CSC2c3c(OC(C)=O)c(C)c4c(c3C(COC1=O)N1C(O)C3Cc5cc(C)c(OC)c(O)c5C(C21)N3C)OCO4
pIC50 (second compound 30 pM): 5.75 | pIC50 (second compound 94.9 pM): 5.71 | pIC50 (second compound 0.0003 µM): 5.69 | pIC50 (second compound 0.000949 µM): > 7.50 | pIC50 (second compound 0.003 µM): > 7.50 | viability, T/C (second compound 30 pM, first compound 0.0316 µM): 97.4% | viability, T/C (second compound 30 pM, first compound 0.1 µM): 102% | viability, T/C (second compound 30 pM, first compound 0.316 µM): 88.2% | viability, T/C (second compound 30 pM, first compound 1 µM): 60.5% | viability, T/C (second compound 30 pM, first compound 3.16 µM): 40.1% | viability, T/C (second compound 30 pM, first compound 10 µM): 32.8% | viability, T/C (second compound 94.9 pM, first compound 0.0316 µM): 104% | viability, T/C (second compound 94.9 pM, first compound 0.1 µM): 102% | viability, T/C (second compound 94.9 pM, first compound 0.316 µM): 90.5% | viability, T/C (second compound 94.9 pM, first compound 1 µM): 61.6% | viability, T/C (second compound 94.9 pM, first compound 3.16 µM): 42.7% | viability, T/C (second compound 94.9 pM, first compound 10 µM): 32.3% | viability, T/C (second compound 0.0003 µM, first compound 0.0316 µM): 99.5% | viability, T/C (second compound 0.0003 µM, first compound 0.1 µM): 104% | viability, T/C (second compound 0.0003 µM, first compound 0.316 µM): 86.8% | viability, T/C (second compound 0.0003 µM, first compound 1 µM): 67.8% | viability, T/C (second compound 0.0003 µM, first compound 3.16 µM): 40% | viability, T/C (second compound 0.0003 µM, first compound 10 µM): 22.4% | viability, T/C (second compound 0.000949 µM, first compound 0.0316 µM): 42.1% | viability, T/C (second compound 0.000949 µM, first compound 0.1 µM): 36.5% | viability, T/C (second compound 0.000949 µM, first compound 0.316 µM): 12.3% | viability, T/C (second compound 0.000949 µM, first compound 1 µM): 0.69% | viability, T/C (second compound 0.000949 µM, first compound 3.16 µM): 0.37% | viability, T/C (second compound 0.000949 µM, first compound 10 µM): 1.03% | viability, T/C (second compound 0.003 µM, first compound 0.0316 µM): 0.59% | viability, T/C (second compound 0.003 µM, first compound 0.1 µM): 0.87% | viability, T/C (second compound 0.003 µM, first compound 0.316 µM): 0.65% | viability, T/C (second compound 0.003 µM, first compound 1 µM): 0.7% | viability, T/C (second compound 0.003 µM, first compound 3.16 µM): 0.82% | viability, T/C (second compound 0.003 µM, first compound 10 µM): 0.98%

O=C(c1cc(Cc2n[nH]c(=O)c3ccccc23)ccc1F)N1CCN(C(=O)C2CC2)CC1 + Cn1nnc2c(C(N)=O)ncn2c1=O
pIC50 (second compound 1 µM): < 4.52 | pIC50 (second compound 3.16 µM): < 4.52 | pIC50 (second compound 10 µM): < 4.52 | pIC50 (second compound 31.6 µM): < 4.52 | pIC50 (second compound 100 µM): < 4.52 | viability, T/C (second compound 1 µM, first compound 0.0949 µM): 99% | viability, T/C (second compound 1 µM, first compound 0.3 µM): 100% | viability, T/C (second compound 1 µM, first compound 0.949 µM): 102% | viability, T/C (second compound 1 µM, first compound 3 µM): 90.8% | viability, T/C (second compound 1 µM, first compound 9.49 µM): 80.2% | viability, T/C (second compound 1 µM, first compound 30 µM): 71.9% | viability, T/C (second compound 3.16 µM, first compound 0.0949 µM): 100% | viability, T/C (second compound 3.16 µM, first compound 0.3 µM): 99.8% | viability, T/C (second compound 3.16 µM, first compound 0.949 µM): 95.4% | viability, T/C (second compound 3.16 µM, first compound 3 µM): 89.9% | viability, T/C (second compound 3.16 µM, first compound 9.49 µM): 82.4% | viability, T/C (second compound 3.16 µM, first compound 30 µM): 63.9% | viability, T/C (second compound 10 µM, first compound 0.0949 µM): 98.6% | viability, T/C (second compound 10 µM, first compound 0.3 µM): 100% | viability, T/C (second compound 10 µM, first compound 0.949 µM): 98.7% | viability, T/C (second compound 10 µM, first compound 3 µM): 89.1% | viability, T/C (second compound 10 µM, first compound 9.49 µM): 74.6% | viability, T/C (second compound 10 µM, first compound 30 µM): 64.3% | viability, T/C (second compound 31.6 µM, first compound 0.0949 µM): 104% | viability, T/C (second compound 31.6 µM, first compound 0.3 µM): 101% | viability, T/C (second compound 31.6 µM, first compound 0.949 µM): 90.3% | viability, T/C (second compound 31.6 µM, first compound 3 µM): 85.3% | viability, T/C (second compound 31.6 µM, first compound 9.49 µM): 70.9% | viability, T/C (second compound 31.6 µM, first compound 30 µM): 62.9% | viability, T/C (second compound 100 µM, first compound 0.0949 µM): 92.7% | viability, T/C (second compound 100 µM, first compound 0.3 µM): 83.6% | viability, T/C (second compound 100 µM, first compound 0.949 µM): 80.2% | viability, T/C (second compound 100 µM, first compound 3 µM): 70.6% | viability, T/C (second compound 100 µM, first compound 9.49 µM): 67.9% | viability, T/C (second compound 100 µM, first compound 30 µM): 54.7%
